The results in this text go back to patent publication JP2007509054A, “血管健康を促進するシリルフェノール” (Amylin Pharmaceuticals LLC, priority 2003, dated 2005).

Data set [1] in a line: Serum antioxidant activity in rats fed AC3056 in the diet. To be noted: rats fed a diet containing AC3056. It is filed as in vivo, rat.
Data set [2] in a line: Serum concentration in rats fed AC3056 in the diet. It is filed as in vivo, rat. To be noted: rats fed a diet containing AC3056.
Another data set relates to serum lipids (血清脂質). The data set is described as follows: Ex vivo copper-induced lipid peroxidation of serum lipids (lag phase), rabbits fed compound for 70 days. It is filed as in vivo. The settings on record: rabbit, Fig. 1.
The test system of data set [3] is leukocyte recruitment (白血球動員). The data set is described as follows: Mechanical carotid injury model in ApoE-/- mice: CD45-positive cells / leukocyte recruitment. In kind it is in vivo, mouse. To be noted: ApoE-/- male mice, treated 18 h before and daily for 28 days after injury, Fig. 8.
The next data set has as its system carotid artery (頚動脈). The data set is described as follows: Mechanical carotid injury model in ApoE-/- mice: quantitative morphometry. It is filed as in vivo, mouse. The settings on record: ApoE-/- male mice, high-fat diet with 1.25% cholesterol, treated 18 h before and daily for 28 days after injury, Fig. 7.
The test system of data set [4] is VCAM-1 (VCAM−1). The data set is described as follows: Cytokine (TNF-α) induced VCAM-1 expression in human umbilical vein endothelial cells (HUVEC). To be noted: Fig. 2. It is filed as cell-based.
The test system of data set [5] is VCAM-1 (VCAM−1). The experiment in a line: IL-4 induced VCAM-1 expression in human coronary artery smooth muscle cells (CASMC). The settings on record: IL-4 100 nmol/L, Fig. 2. It is filed as cell-based.

Consider `COc1ccc([Si](C)(C)COc2cc(C(C)(C)C)c(O)c(C(C)(C)C)c2)cc1` [AC3056], for which the “antioxidant activity in serum” value in data set [1] is recorded as “血清中の抗酸化活性の増加”. This molecule came in with a mean serum concentration in data set [2] of 17700 ng/mL. Besides, the “increase in lag phase versus serum concentration” value in the data set with serum lipids (血清脂質) was “血清濃度に比例する”. Besides, the “leukocyte recruitment to the neointimal space after vascular injury (CD45-positive cells)” value in data set [3] was “白血球動員を阻害する”. In addition, in the data set with carotid artery (頚動脈), the intima/media ratio result is “内膜/中膜の比が低下する”, the mean lumen thickness result was “平均の内腔厚みが増加する” and the mean neointimal thickness entry was “平均の新血管内膜の厚みが低下する”.
As to `CC(C)(Sc1cc(C(C)(C)C)c(O)c(C(C)(C)C)c1)Sc1cc(C(C)(C)C)c(O)c(C(C)(C)C)c1` [プロブコール], the “inhibition of cytokine-induced (TNF-α) VCAM-1 expression” value with VCAM-1 (VCAM−1) [4] is reported as “同様の濃度範囲にて有効ではない”. The “inhibition of IL-4 induced VCAM-1 expression” value in the data set with VCAM-1 (VCAM−1) [5] is “本発明の化合物より一般的に有効ではない”.
